The text below walks through data of ChEMBL document CHEMBL1150595, “Isolation and structure elucidation of radical scavengers from Thymus vulgaris leaves” (J Nat Prod, 2002).

Data set [1] concerns Radical scavenging activity. Nature of the data set: Antioxidant activity assessed as DPPH radical scavenging activity at drug-DPPH molar ratio of 1:2 after 15 mins. It counts as functional.
For data set [2], the system named is Radical scavenging activity. The data set can be described thus: Antioxidant activity assessed as DPPH radical scavenging activity after 3 mins. It counts as functional.
For data set [3], the system named is Radical scavenging activity. Nature of the data set: Antioxidant activity assessed as DPPH radical scavenging activity after 1 min. In kind it is functional.
The nature of data set [4]: ABTS radical scavenging activity assessed as Trolox equivalent antioxidant capacity after 1 min. In kind it is physicochemical.
The nature of data set [5]: ABTS radical scavenging activity assessed as Trolox equivalent antioxidant capacity after 6 mins. In kind it is physicochemical. The note with it: 0.1 h.

Calls of active or inactive are those of the source. No cut-off for these calls is given here.

As for `O=C(/C=C/c1ccc(O)c(O/C(=C\c2ccc(O)c(O)c2)C(=O)O)c1)O[C@H](Cc1ccc(O)c(O)c1)C(=O)O`, the inhibition in data set [1] came to 96%; in data set [3] it was 70%. For the same compound, the outcome in data set [2] was Active. In addition, the figures for the Ratio in data set [4] and in data set [5] were 0.58 and 0.69, respectively.

For `O=C(/C=C/c1ccc(O)c(O)c1)O[C@H](Cc1ccc(O)c(O)c1)C(=O)O` [ROSMARINIC ACID], the inhibition in data set [1] was determined as 95%; in data set [3], 43%. Also, the Ratio stood at 1.5 in data set [4] and 1.54 in data set [5].
